Results: US11530229B2, “Cyano cyclobutyl compounds for CBL-B inhibition and uses thereof” (Nurix Therapeutics, Inc., priority 2019, dated 2022)
Where two headings read alike, the source gives them in different places.

How the values were obtained:
Cbl-b = Cbl-b (Homo sapiens (Human), UniProt Q13191); experiment: Cbl-b displacement assay (Cbl-b inhibition assay), Biological Example 1; type: binding
How it was run: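 Avitag-biotinylated human Cbl-b (residues 36–427) at 0.5 nM ("High") or 0.125 nM ("Low") pre-incubated 1 h with compound (1% DMSO) in HEPES pH 7.5/NaCl/Triton/BSA/TCEP, RT. Then 1 h with 150 nM BODIPY FL inhibitor probe (~EC40) plus 2 nM streptavidin-Tb. TR-FRET read at 520/620 nm for probe displacement.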

[1] = system: primary human total T-cells; experiment: T-cell activation, CD25 surface staining, Biological Example 2; type: cell-based; conditions: 48 hours, fold change over baseline; for fold induction at 0.3 µM: 0.3 μM inhibitor; for fold induction at 1 µM: 1 μM inhibitor; for fold induction at 3 µM: 3 μM inhibitor
[2] = system: primary human total T-cells; experiment: T-cell activation, IL-2 secretion, Biological Example 2; type: cell-based; conditions: 48 hours, fold change over baseline; for fold induction at 0.3 µM: 0.3 μM inhibitor; for fold induction at 1 µM: 1 μM inhibitor; for fold induction at 3 µM: 3 μM inhibitor
[3] = 0.125 nM Cbl-b final concentration (Low), read-out: Cbl-b activity IC50 (Low)
[4] = anti-CD3 and anti-CD28 co-stimulation
[5] = anti-CD3 and anti-CD28 co-stimulation, read-out: CD25 staining CD3/CD28 1 μM
[6] = anti-CD3 stimulation alone, read-out: CD25 staining CD3 1 μM
[7] = anti-CD3 and anti-CD28 co-stimulation, read-out: IL-2 secretion CD3/CD28 1 μM
[8] = anti-CD3 stimulation alone, read-out: IL-2 secretion CD3 1 μM
[9] = read-out: IC50 values in the Cbl-b inhibition assay of Biological Example 1

Cbl-b, sequence (Q13191 36-427): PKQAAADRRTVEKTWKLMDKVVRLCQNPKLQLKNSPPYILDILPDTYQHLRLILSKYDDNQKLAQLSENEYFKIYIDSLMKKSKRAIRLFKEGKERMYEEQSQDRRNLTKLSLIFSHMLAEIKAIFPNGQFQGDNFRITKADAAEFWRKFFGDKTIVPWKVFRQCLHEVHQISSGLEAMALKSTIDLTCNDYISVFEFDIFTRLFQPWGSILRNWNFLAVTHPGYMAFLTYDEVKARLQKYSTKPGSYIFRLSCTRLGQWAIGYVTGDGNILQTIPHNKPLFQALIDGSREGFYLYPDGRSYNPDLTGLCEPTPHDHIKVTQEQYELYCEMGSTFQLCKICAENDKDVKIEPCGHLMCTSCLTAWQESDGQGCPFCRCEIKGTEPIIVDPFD

| Structure (SMILES) | IC50 (Cbl-b; [3]) | fold induction at 0.3 µM [1, 4] | fold induction at 1 µM [1, 5] | fold induction at 1 µM [1, 6] | fold induction at 3 µM ([1]; anti-CD3 stimulation alone) | fold induction at 0.3 µM [2, 4] | fold induction at 1 µM [2, 7] | fold induction at 1 µM [2, 8] | fold induction at 3 µM ([2]; anti-CD3 stimulation alone) | IC50 (Cbl-b; [9]) |
| --- | --- | --- | --- | --- | --- | --- | --- | --- | --- | --- |
| Cn1cnnc1C[C@]1(c2cccc(N3Cc4c(cc(CN5CCC6CCC(C5)O6)cc4C(F)(F)F)C3=O)c2)C[C@H](C#N)C1 (some centres unmarked) [Compound 37, (1r,3r)-3-(3-(6-((9-oxa-3-azabicyclo[4.2.1]nonan-3-yl)methyl)-1-oxo-4-(trifluoromethyl)isoindolin-2-yl)phenyl)-3-((4-methyl-4H-1,2,4-triazol-3-yl)methyl)cyclobutane-1-carbonitrile] | 2 to 5 nM | 1.24 to 1.39 | 1.24 to 1.39 | 1 to 1.15 | ≤ 1 | ≤ 15 | 15 to 20 | < 0.4 | 0.4 to 0.85 |  |
| Cn1cnnc1C[C@]1(c2cccc(N3Cc4c(cc(CN5CC6COC(C6)C5)cc4C(F)(F)F)C3=O)c2)C[C@H](C#N)C1 (some centres unmarked) [Compound 38, (1r,3r)-3-(3-(6-((6-oxa-3-azabicyclo[3.2.1]octan-3-yl)methyl)-1-oxo-4-(trifluoromethyl)isoindolin-2-yl)phenyl)-3-((4-methyl-4H-1,2,4-triazol-3-yl)methyl)cyclobutane-1-carbonitrile] | 5 to 20 nM | > 1.39 | > 1.39 | > 1.15 | > 1.15 | ≤ 15 | 15 to 20 | 0.4 to 0.85 | > 0.85 | 5 to 20 nM |
| Cn1cnnc1C[C@]1(c2cccc(N3Cc4c(cc(CNC5CCC(F)(F)C5)nc4C4CC4)C3=O)c2)C[C@H](C#N)C1 (some centres unmarked) [Compound 39, (1r,3r)-3-(3-(4-cyclopropyl-6-(((3,3-difluorocyclopentyl)amino)methyl)-1-oxo-1,3-dihydro-2H-pyrrolo[3,4-c]pyridin-2-yl)phenyl)-3-((4-methyl-4H-1,2,4-triazol-3-yl)methyl)cyclobutane-1-carbonitrile] | 1 to 2 nM | 1.24 to 1.39 | ≤ 1.24 | ≤ 1 | ≤ 1 | ≤ 15 | ≤ 15 | < 0.4 | < 0.4 | 1 to 2 nM |
| C[C@H]1CCCN(Cc2cc3c(c(C4CC4)n2)CN(c2cccc([C@]4(Cc5nncn5C)C[C@@H](C#N)C4)c2)C3=O)C1 [Compound 40, (1r,3r)-3-(3-(4-cyclopropyl-6-(((S)-3-methylpiperidin-1-yl)methyl)-1-oxo-1,3-dihydro-2H-pyrrolo[3,4-c]pyridin-2-yl)phenyl)-3-((4-methyl-4H-1,2,4-triazol-3-yl)methyl)cyclobutane-1-carbonitrile] | 1 to 2 nM | 1.24 to 1.39 | 1.24 to 1.39 | 1 to 1.15 | ≤ 1 | ≤ 15 | 15 to 20 | 0.4 to 0.85 | > 0.85 | 1 to 2 nM |
| Cn1cnnc1C[C@]1(c2cccc(N3Cc4c(cc(CN5CCCOC(CO)C5)cc4C(F)(F)F)C3=O)c2)C[C@H](C#N)C1 (some centres unmarked) [Compound 41, (1r,3r)-3-(3-(6-((2-(hydroxymethyl)-1,4-oxazepan-4-yl)methyl)-1-oxo-4-(trifluoromethyl)isoindolin-2-yl)phenyl)-3-((4-methyl-4H-1,2,4-triazol-3-yl)methyl)cyclobutane-1-carbonitrile] | 2 to 5 nM | 1.24 to 1.39 | > 1.39 | ≤ 1 | 1 to 1.15 | ≤ 15 | ≤ 15 | < 0.4 | < 0.4 |  |
| C[C@@H]1CN(Cc2cc3c(c(C4CC4)n2)CN(c2cccc([C@]4(Cc5nncn5C)C[C@@H](C#N)C4)c2)C3=O)CCC1(F)F [Compound 42, (1R,3r)-3-(3-(4-cyclopropyl-6-(((R)-4,4-difluoro-3-methylpiperidin-1-yl)methyl)-1-oxo-1,3-dihydro-2H-pyrrolo[3,4-c]pyridin-2-yl)phenyl)-3-((4-methyl-4H-1,2,4-triazol-3-yl)methyl)cyclobutane-1-carbonitrile] | 2 to 5 nM | ≤ 1.24 | ≤ 1.24 | 1 to 1.15 | 1 to 1.15 | 15 to 20 | > 20 | > 0.85 | > 0.85 |  |
| CCC1COCCN(Cc2cc3c(c(C(F)(F)F)c2)CN(c2cccc([C@]4(Cc5nncn5C)C[C@@H](C#N)C4)c2)C3=O)C1 (some centres unmarked) [Compound 43, (1r,3r)-3-(3-(6-((6-ethyl-1,4-oxazepan-4-yl)methyl)-1-oxo-4-(trifluoromethyl)isoindolin-2-yl)phenyl)-3-((4-methyl-4H-1,2,4-triazol-3-yl)methyl)cyclobutane-1-carbonitrile] | 2 to 5 nM | ≤ 1.24 | ≤ 1.24 | 1 to 1.15 | 1 to 1.15 | ≤ 15 | > 20 | 0.4 to 0.85 | 0.4 to 0.85 |  |
| Cn1cnnc1C[C@]1(c2cccc(N3Cc4c(cc(CN5CCOCC(CO)C5)cc4C(F)(F)F)C3=O)c2)C[C@H](C#N)C1 (some centres unmarked) [Compound 44, (1r,3r)-3-(3-(6-((6-(hydroxymethyl)-1,4-oxazepan-4-yl)methyl)-1-oxo-4-(trifluoromethyl)isoindolin-2-yl)phenyl)-3-((4-methyl-4H-1,2,4-triazol-3-yl)methyl)cyclobutane-1-carbonitrile] | 1 to 2 nM | ≤ 1.24 | ≤ 1.24 | ≤ 1 | 1 to 1.15 | ≤ 15 | ≤ 15 | < 0.4 | < 0.4 | 1 to 2 nM |
| COCC1CCCCN(Cc2cc3c(c(C(F)(F)F)c2)CN(c2cccc([C@]4(Cc5nncn5C)C[C@@H](C#N)C4)c2)C3=O)C1 (some centres unmarked) [Compound 45, (1r,3r)-3-(3-(6-((3-(methoxymethyl)azepan-1-yl)methyl)-1-oxo-4-(trifluoromethyl)isoindolin-2-yl)phenyl)-3-((4-methyl-4H-1,2,4-triazol-3-yl)methyl)cyclobutane-1-carbonitrile] | 2 to 5 nM | 1.24 to 1.39 | 1.24 to 1.39 | 1 to 1.15 | 1 to 1.15 | ≤ 15 | > 20 | 0.4 to 0.85 | > 0.85 | 2 to 5 nM |
| COCC1COCCN(Cc2cc3c(c(C(F)(F)F)c2)CN(c2cccc([C@]4(Cc5nncn5C)C[C@@H](C#N)C4)c2)C3=O)C1 (some centres unmarked) [Compound 46, (1r,3r)-3-(3-(6-((6-(methoxymethyl)-1,4-oxazepan-4-yl)methyl)-1-oxo-4-(trifluoromethyl)isoindolin-2-yl)phenyl)-3-((4-methyl-4H-1,2,4-triazol-3-yl)methyl)cyclobutane-1-carbonitrile] | 5 to 20 nM | > 1.39 | > 1.39 | > 1.15 | > 1.15 | ≤ 15 | 15 to 20 | 0.4 to 0.85 | > 0.85 | 5 to 20 nM |
| Cn1cnnc1C[C@]1(c2cccc(N3Cc4c(cc(CN5CC6CCC(F)(F)C6C5)cc4C(F)(F)F)C3=O)c2)C[C@H](C#N)C1 (some centres unmarked) [Compound 47, (1r,3r)-3-(3-(6-((4,4-difluorohexahydrocyclopenta[c]pyrrol-2(1H)-yl)methyl)-1-oxo-4-(trifluoromethyl)isoindolin-2-yl)phenyl)-3-((4-methyl-4H-1,2,4-triazol-3-yl)methyl)cyclobutane-1-carbonitrile] | 2 to 5 nM | > 1.39 | > 1.39 | > 1.15 | > 1.15 | > 20 | > 20 | > 0.85 | > 0.85 | 2 to 5 nM |
| Cn1cnnc1C[C@]1(c2cccc(N3Cc4c(cc(CN5CCCCC(CO)C5)cc4C(F)(F)F)C3=O)c2)C[C@H](C#N)C1 (some centres unmarked) [Compound 48, (1r,3r)-3-(3-(6-((3-(hydroxymethyl)azepan-1-yl)methyl)-1-oxo-4-(trifluoromethyl)isoindolin-2-yl)phenyl)-3-((4-methyl-4H-1,2,4-triazol-3-yl)methyl)cyclobutane-1-carbonitrile] | 1 to 2 nM | > 1.39 | > 1.39 | > 1.15 | > 1.15 | ≤ 15 | > 20 | 0.4 to 0.85 | 0.4 to 0.85 | 1 to 2 nM |
